Reference: patent US20150344457A1, “METHODS OF INHIBITING PRMT5” (EPIZYME, INC., priority 2012, published 2015)

Tested on: Z-138 cells
Experiment: Z-138 Methylation Assay (In Cell Western for symmetric di-methyl arginine and DNA content)
Format: cell-based
Conditions: Homo sapiens, Table A-2, 96 hours, symmetric di-methyl arginine, read-out: ICW EC50
Source text: Z-138 suspension cells were purchased from ATCC (American Type Culture Collection, Manassas, Va.). RPMI/Glutamax medium, penicillin-streptomycin, heat inactivated fetal bovine serum, and D-PBS were purchased from Life Technologies, Grand Island, N.Y., USA. Odyssey blocking buffer, 800CW goat anti-rabbit IgG (H+L) antibody, and Licor Odyssey infrared scanner were purchased from Licor Biosciences, Lincoln, Nebr., USA. Symmetric di-methyl arginine antibody was purchased from EMD Millipore, Billerica, Mass., USA. 16% Paraformaldehyde was purchased from Electron Microscopy Sciences, Hatfield, Pa., USA.
Z-138 suspension cells were maintained in growth medium (RPMI 1640 supplemented with 10% v/v heat inactivated fetal bovine serum and 100 units/mL penicillin-streptomycin) and cultured at 37° C. under 5% CO2.
Cell Treatment, in Cell Western (ICW) for Detection of Symmetric Di-Methyl Arginine and DNA Content.
Z-138 cells were seeded in assay medium at a concentration of 50,000 cells per mL to a 384-well cell culture plate with 50 μL per well. Compound (100 nL) from 384 well source plates was added directly to 384 well cell plate. Plates were incubated at 37° C., 5% CO2 for 96 hours. After four days of incubation, 40 μL of cells from incubated plates were added to poly-D-lysine coated 384 well culture plates (BD Biosciences 356697). Plates were incubated at room temperature for 30 minutes then incubated at 37° C., 5% CO2 for 5 hours. After the incubation, 40 μL per well of 8% paraformaldehyde in PBS (16% paraformaldahyde was diluted to 8% in PBS) was added to each plate and incubated for 30 minutes. Plates were transferred to a Biotek 405 plate washer and washed 5 times with 100 μL per well of wash buffer (1×PBS with 0.1% Triton X-100 (v/v)). Next 30 μL per well of Odyssey blocking buffer were added to each plate and incubated 1 hour at room temperature. Blocking buffer was removed and 20 μL per well of primary antibody was added (symmetric di-methyl arginine diluted 1:100 in Odyssey buffer with 0.1% Tween 20 (v/v)) and plates were incubated overnight (16 hours) at 4° C. Plates were washed 5 times with 100 μL per well of wash buffer. Next 20 μL per well of secondary antibody was added (1:200 800CW goat anti-rabbit IgG (H+L) antibody, 1:1000 DRAQS (Biostatus limited) in Odyssey buffer with 0.1% Tween 20 (v/v)) and incubated for 1 hour at room temperature. The plates were washed 5 times with 100 μL per well wash buffer then 1 time with 100 μL per well of water. Plates were allowed to dry at room temperature then imaged on the Licor Odyssey machine which measures integrated intensity at 700 nm and 800 nm wavelengths. Both 700 and 800 channels were scanned.
First, the ratio for each well was determined by:
Each plate included fourteen control wells of DMSO only treatment (minimum inhibition) as well as fourteen control wells for maximum inhibition treated with 3 μM of a reference compound (Background wells). The average of the ratio values for each control type was calculated and used to determine the percent inhibition for each test well in the plate. Reference compound was serially diluted three-fold in DMSO for a total of nine test concentrations, beginning at 3 μM. Percent inhibition was determined and IC50 curves were generated using triplicate wells per concentration of compound.

SMILES | EC50 [nM]
O=C(COc1cccc2cccnc12)NCC(O)CN1CCc2ccccc2C1 (stereo not drawn) [Compound A6] | < 100
O=C(COc1cccc(F)c1)NCC(O)CN1CCc2ccccc2C1 (stereo not drawn) [Compound A7] | 101 to 1000
N#Cc1cccc(OCC(=O)NCC(O)CN2CCc3ccccc3C2)c1 (stereo not drawn) [Compound A8] | 101 to 1000
Cc1ccc(OCC(=O)NCC(O)CN2CCc3ccccc3C2)cc1 (stereo not drawn) [Compound A9] | 10000 to 50000
N#Cc1ccc(OCC(=O)NCC(O)CN2CCc3ccccc3C2)cc1 (stereo not drawn) [Compound A11] | 101 to 1000
COc1ccc(OCC(=O)NCC(O)CN2CCc3ccccc3C2)cc1 (stereo not drawn) [Compound A12] | 101 to 1000
Cc1ccccc1OCC(=O)NCC(O)CN1CCc2ccccc2C1 (stereo not drawn) [Compound A15] | 101 to 1000
O=C(COc1ccccc1F)NCC(O)CN1CCc2ccccc2C1 (stereo not drawn) [Compound A16] | 101 to 1000
N#Cc1ccccc1OCC(=O)NCC(O)CN1CCc2ccccc2C1 (stereo not drawn) [Compound A17] | 101 to 1000
O=C(CNc1ccccc1)NCC(O)CN1CCc2ccccc2C1 (stereo not drawn) [Compound A18] | 1000 to 10000
CC(Oc1ccccc1)C(=O)NCC(O)CN1CCc2ccccc2C1 (stereo not drawn) [Compound A19] | 101 to 1000
COc1cccc(OCC(=O)NCC(O)CN2CCc3ccccc3C2)c1 (stereo not drawn) [Compound A20] | 101 to 1000
CC(=O)Nc1ccc(OCC(=O)NCC(O)CN2CCc3ccccc3C2)cc1 (stereo not drawn) [Compound A21] | 101 to 1000
COc1ccccc1OCC(=O)NCC(O)CN1CCc2ccccc2C1 (stereo not drawn) [Compound A22] | 101 to 1000
Cn1ncc2ccc(OCC(=O)NCC(O)CN3CCc4ccccc4C3)cc21 (stereo not drawn) [Compound A23] | 101 to 1000
Cc1cccc(OCC(=O)NCC(O)CN2CCc3ccccc3C2)c1 (stereo not drawn) [Compound A26] | 101 to 1000
CN(C)c1cccc(OCC(=O)NCC(O)CN2CCc3ccccc3C2)c1 (stereo not drawn) [Compound A27] | 101 to 1000
CS(=O)(=O)Nc1cccc(OCC(=O)NCC(O)CN2CCc3ccccc3C2)c1 (stereo not drawn) [Compound A28] | 101 to 1000
NC(=O)c1ccccc1OCC(=O)NCC(O)CN1CCc2ccccc2C1 (stereo not drawn) [Compound A29] | 101 to 1000
CC(=O)Nc1cccc(OCC(=O)NCC(O)CN2CCc3ccccc3C2)c1 (stereo not drawn) [Compound A31] | 101 to 1000
O=C(COc1ccccc1)NC[C@H](O)CN1CCc2ccccc2C1 [Compound A32] | 101 to 1000

SMILES | EC50 [nM]
NC(=O)c1cccc(OCC(=O)NCC(O)CN2CCc3ccccc3C2)c1 (stereo not drawn) [Compound A34] | 101 to 1000
CN(C)c1ccc(OCC(=O)NCC(O)CN2CCc3ccccc3C2)cc1 (stereo not drawn) [Compound A35] | 101 to 1000
CC(=O)Nc1ccccc1OCC(=O)NCC(O)CN1CCc2ccccc2C1 (stereo not drawn) [Compound A36] | 101 to 1000
CS(=O)(=O)c1ccccc1OCC(=O)NCC(O)CN1CCc2ccccc2C1 (stereo not drawn) [Compound A37] | < 100
CN(C)c1ccccc1OCC(=O)NCC(O)CN1CCc2ccccc2C1 (stereo not drawn) [Compound A38] | < 100
CC(Oc1cccc2cccnc12)C(=O)NCC(O)CN1CCc2ccccc2C1 (stereo not drawn) [Compound A39] | < 100
O=C(COc1ccccc1C1CCCCC1)NCC(O)CN1CCc2ccccc2C1 (stereo not drawn) [Compound A40] | 101 to 1000
CS(=O)(=O)Nc1ccc(OCC(=O)NCC(O)CN2CCc3ccccc3C2)cc1 (stereo not drawn) [Compound A42] | 101 to 1000
CC(C)(Oc1cccc2cccnc12)C(=O)NCC(O)CN1CCc2ccccc2C1 (stereo not drawn) [Compound A43] | 101 to 1000
O=C(COc1cccc2cccnc12)NC[C@H](O)CN1CCc2ccccc2C1 [Compound A44] | 101 to 1000
O=C(COc1cccc2cccnc12)NC[C@@H](O)CN1CCc2ccccc2C1 [Compound A45] | < 100
Cn1cnc2cc(OCC(=O)NCC(O)CN3CCc4ccccc4C3)ccc21 (stereo not drawn) [Compound A46] | 101 to 1000
CS(=O)(=O)c1cccc(OCC(=O)NCC(O)CN2CCc3ccccc3C2)c1 (stereo not drawn) [Compound A47] | 101 to 1000
O=C(COc1cccc2ccc(N3CCOCC3)nc12)NCC(O)CN1CCc2ccccc2C1 (stereo not drawn) [Compound A48] | 101 to 1000
O=C(COc1ccccc1N1CCOCC1)NCC(O)CN1CCc2ccccc2C1 (stereo not drawn) [Compound A49] | 101 to 1000
O=C(COc1ccccc1-c1cc[nH]n1)NCC(O)CN1CCc2ccccc2C1 (stereo not drawn) [Compound A50] | < 100
CS(=O)(=O)Nc1ccccc1OCC(=O)NCC(O)CN1CCc2ccccc2C1 (stereo not drawn) [Compound A53] | 101 to 1000
O=C(COc1cccc2c1CCCC2)NCC(O)CN1CCc2ccccc2C1 (stereo not drawn) [Compound A64] | 101 to 1000
NS(=O)(=O)c1ccccc1OCC(=O)NCC(O)CN1CCc2ccccc2C1 (stereo not drawn) [Compound A65] | 101 to 1000
O=C(COc1cccc2ccccc12)NCC(O)CN1CCc2ccccc2C1 (stereo not drawn) [Compound A66] | 101 to 1000

Continued, values first:

EC50 [nM] | SMILES
< 100 | O=C(COc1ccccc1-c1cc[nH]n1)NC[C@@H](O)CN1CCc2ccccc2C1 [Compound A67]
101 to 1000 | O=C(COc1ccccc1-c1cc[nH]n1)NC[C@H](O)CN1CCc2ccccc2C1 [Compound A68]
101 to 1000 | O=C(COc1ccc2ncn(C3CCNCC3)c2c1)NCC(O)CN1CCc2ccccc2C1 (stereo not drawn) [Compound A70]
101 to 1000 | CN1CCC(n2cnc3ccc(OCC(=O)NCC(O)CN4CCc5ccccc5C4)cc32)CC1 (stereo not drawn) [Compound A71]
< 100 | C[C@@H](Oc1cccc2cccnc12)C(=O)NC[C@H](O)CN1CCc2ccccc2C1 [Compound A73]
101 to 1000 | C[C@@H](Oc1cccc2cccnc12)C(=O)NC[C@@H](O)CN1CCc2ccccc2C1 [Compound A74]
101 to 1000 | CN1CCC(n2ncc3cc(OCC(=O)NCC(O)CN4CCc5ccccc5C4)ccc32)C1 (stereo not drawn) [Compound A96]
101 to 1000 | COc1ccc2cccc(OCC(=O)NC[C@H](O)CN3CCc4ccccc4C3)c2n1 [Compound A97]
< 100 | COc1ccc2cccc(OCC(=O)NC[C@@H](O)CN3CCc4ccccc4C3)c2n1 [Compound A98]
101 to 1000 | CN1CCc2c(cccc2OCC(=O)NCC(O)CN2CCc3ccccc3C2)C1 (stereo not drawn) [Compound A99]
< 100 | O=C(COc1cccc2c1OCCO2)NCC(O)CN1CCc2ccccc2C1 (stereo not drawn) [Compound A100]
< 100 | CC(=O)N1CCc2c(cccc2OCC(=O)NCC(O)CN2CCc3ccccc3C2)C1 (stereo not drawn) [Compound A101]
< 100 | CS(=O)(=O)N1CCc2c(cccc2OCC(=O)NCC(O)CN2CCc3ccccc3C2)C1 (stereo not drawn) [Compound A102]
101 to 1000 | O=C(COc1ccccc1C1CCNCC1)NCC(O)CN1CCc2ccccc2C1 (stereo not drawn) [Compound A103]
1000 to 10000 | CN(C)c1ccc2cccc(OCC(=O)NC[C@H](O)CN3CCc4ccccc4C3)c2n1 [Compound A104]
101 to 1000 | CN(C)c1ccc2cccc(OCC(=O)NC[C@@H](O)CN3CCc4ccccc4C3)c2n1 [Compound A105]
101 to 1000 | CS(=O)(=O)N1CCN(c2ccccc2OCC(=O)NCC(O)CN2CCc3ccccc3C2)CC1 (stereo not drawn) [Compound A106]
< 100 | O=C(COc1ccccc1S(=O)(=O)N1CCNCC1)NCC(O)CN1CCc2ccccc2C1 (stereo not drawn) [Compound A107]
101 to 1000 | CN1CCN(S(=O)(=O)c2ccccc2OCC(=O)NCC(O)CN2CCc3ccccc3C2)CC1 (stereo not drawn) [Compound A108]
< 100 | CN(C)S(=O)(=O)c1ccccc1OCC(=O)NCC(O)CN1CCc2ccccc2C1 (stereo not drawn) [Compound A109]
< 100 | O=C(COc1ccccc1S(=O)(=O)N1CCCC1)NCC(O)CN1CCc2ccccc2C1 (stereo not drawn) [Compound A110]
< 100 | O=C(COc1ccccc1S(=O)(=O)N1CCC(O)C1)NCC(O)CN1CCc2ccccc2C1 (stereo not drawn) [Compound A111]
101 to 1000 | CNC(=O)c1ccccc1OCC(=O)NCC(O)CN1CCc2ccccc2C1 (stereo not drawn) [Compound A112]
101 to 1000 | CN(C)C(=O)c1ccccc1OCC(=O)NCC(O)CN1CCc2ccccc2C1 (stereo not drawn) [Compound A113]
1000 to 10000 | CC(Oc1ccccc1S(C)(=O)=O)C(=O)NCC(O)CN1CCc2ccccc2C1 (stereo not drawn) [Compound A114]
1000 to 10000 | O=C(COc1ccccc1C1CCNC1)NCC(O)CN1CCc2ccccc2C1 (stereo not drawn) [Compound A116]
101 to 1000 | O=C(COc1ccccc1C1CCCNC1)NCC(O)CN1CCc2ccccc2C1 (stereo not drawn) [Compound A117]
1000 to 10000 | Cn1cc2c(OCC(=O)NCC(O)CN3CCc4ccccc4C3)cccc2n1 (stereo not drawn) [Compound A118]
